Results: patent US20030119742A1, “Methods and compositions to treat cardiovascular disease using 139, 258, 1261, 1486, 2398, 2414, 7660, 8587,10183, 10550, 12680, 17921, 32248, 60489 or 93804” (Millennium Pharmaceuticals, Inc., priority 2001, published 2003)

B1: CD40L: cytokine used to stimulate endothelial cells or monocyte/macrophages (protein, UniProt P29965 113-261, looked up)
CD40 ligand, soluble form: MQKGDQNPQIAAHVISEASSKTTSVLQWAEKGYYTMSNNLVTLENGKQLTVKRQGLYYIYAQVTFCSNREASSQAPFIASLCLKSPGRFERILLRAANTHSSAKPCGQQSIHLGGVFELQPGASVFVNVTDPSQVSHGTGFTSFGLLKL
B2: IFNgamma: cytokine used to stimulate endothelial cells or monocyte/macrophages (protein, UniProt P01579 24-161, looked up)
Interferon gamma: QDPYVKEAENLKKYFNAGHSDVADNGTLFLGILKNWKEESDRKIMQSQIVSFYFKLFKNFKDDQSIQKSVETIKEDMNVKFFNSNKKKRDDFEKLTNYSVTDLNVQRKAIHELIQVMAELSPAAKTGKRKRSQMLFRG

Key:
[1] = tested on: 12680 mRNA; test: TaqMan analysis of 12680 mRNA in in vivo marmoset models
Excerpt: (§1) This example describes the TaqMan™ procedure. The Taqman™ procedure is a quantitative, reverse transcription PCR-based approach for detecting mRNA. The RT-PCR reaction exploits the 5′ nuclease activity of AmpliTaq Gold™ DNA Polymerase to cleave a TaqMan™ probe during PCR. Briefly, cDNA was generated from the samples of interest, e.g., heart, kidney, liver, skeletal muscle, and various vessels, and used as the starting material for PCR amplification. In addition to the 5′ and 3′ gene-specific primers, a gene-specific oligonucleotide probe (complementary to the region being amplified) was included in the reaction (i.e., the Taqman™ probe). […]
(§2) During the PCR reaction, cleavage of the probe separates the reporter dye and the quencher dye, resulting in increased fluorescence of the reporter. Accumulation of PCR products is detected directly by monitoring the increase in fluorescence of the reporter dye. When the probe is intact, the proximity of the reporter dye to the quencher dye results in suppression of the reporter fluorescence. […]

[2] = tested on: 10550 mRNA; test: TaqMan analysis of 10550 mRNA in in vivo marmoset models
Excerpt: as §1, §2

[3] = tested on: 1486 mRNA; test: TaqMan analysis of 1486 mRNA in livers of treated marmosets; format: in vivo, marmoset
Excerpt: as §1, §2

[4] = tested on: 10183 mRNA; test: TaqMan analysis of 10183 mRNA in in vivo marmoset models
Excerpt: As assessed by TaqMan analysis, 10183 mRNA is repressed by probucol and cerivastatin/fenofibrate in in vivo marmoset models. Probucol is used clinically for the treatment of atherosclerosis/coronary artery disease. Genes that are regulated by probucol in animal models and/or in vitro models are predicted to be responsible for the therapeutic benefit of this agent and represent new therapeutic targets for the treatment of cardiovascular disease/atherosclerosis/dyslipidemia/lipid disorders. Fibrates are used clinically for the reduction of triglycerides and statins for the reduction of cholesterol, both well-defined risk factor for atherosclerosis/coronary artery disease. Genes that are regulated by this combination treatment in animal models and/or in vitro models are predicted to be responsible for the therapeutic benefit of these agents and represent new therapeutic targets for the treatment of cardiovascular disease/atherosclerosis/dyslipidemia/lipid disorders. […] PPAR alpha agonists are used clinically for the reduction of triglycerides and statins for the reduction of cholesterol, both well-defined risk factor for atherosclerosis/coronary artery disease. […]

[5] = tested on: 1261 mRNA; test: TaqMan analysis of 1261 mRNA in human microvascular endothelial cells (HMVEC) from the heart; format: cell-based; details: HMVEC from the heart treated with the factor
[6] = tested on: 2414 mRNA; test: TaqMan analysis of 2414 mRNA during cytokine stimulation of endothelial cells and monocyte/macrophages; format: cell-based; details: cytokine stimulation of either endothelial cells or monocyte/macrophages
Excerpt: CD40L, TNFalpha, IL-1, and IFNgamma were used to stimulate either endothelial cells or monocyte/macrophages. These cytokines initiate/sustain the atherosclerotic pathogenesis
This example describes the TaqMan™ procedure.

[7] = tested on: 2398; details: endothelial cells
Excerpt: as §1, §2

[8] = tested on: 32248 mRNA; test: TaqMan analysis of 32248 mRNA in monkey liver model; format: in vivo
Excerpt: As assessed by TaqMan analysis, 32248 mRNA was repressed by n-3 polyunsaturated fatty acid in monkey liver model. […] Genes that are regulated by polyunsaturated fatty acids in animal models and/or in vitro models are predicted to be responsible for the therapeutic benefit of this agent and represent new therapeutic targets for the treatment of cardiovascular disease/atherosclerosis/dyslipidemia/lipid disorders. […] Cholestyramine is used clinically for the reduction of cholesterol, a defined risk factor for atherosclerosis/coronary artery disease. Genes that are regulated by cholestyramine in animal models and/or in vitro models are predicted to be responsible for the therapeutic benefit of this agent and represent new therapeutic targets for the treatment of cardiovascular disease/atherosclerosis/dyslipidemia/lipid disorders. Fibrates are used clinically for the reduction of triglycerides and statins for the reduction of cholesterol, both well-defined risk factor for atherosclerosis/coronary artery disease. Genes that are regulated by this combination treatment in animal models and/or in vitro models are predicted to be responsible for the therapeutic benefit of these agents and represent new therapeutic targets for the treatment of cardiovascular disease/atherosclerosis/dyslipidemia/lipid disorders. 32248 was highly expressed in human liver. […]

Row | Molecule | expression of human 1261 mRNA [5] | expression of 2414 mRNA [6] | other results
1 | CC(C)(Sc1cc(C(C)(C)C)c(O)c(C(C)(C)C)c1)Sc1cc(C(C)(C)C)c(O)c(C(C)(C)C)c1 [probucol] |  |  | 12680 mRNA [1]: repressed; 10550 mRNA [2]: repressed; 1486 mRNA [3]: repressed; 10183 mRNA [4]: repressed
2 | IL-1beta: pro-angiogenic factor interleukin 1 beta | upregulated |  | 
3 | TNF-alpha | upregulated | up-regulated | 
4 | VEGF | upregulated |  | 2398 expression [7]: upregulated
5 | n-3 polyunsaturated fatty acid |  |  | 32248 mRNA [8]: repressed
6 | B1 |  | up-regulated | 
7 | B2 |  | up-regulated | 
